# From US9174996B2, “Protein kinase inhibitors” (Astar Biotech LLC, priority 2012, dated 2015)
# Assays:
# [1] = system: K562 cells; assay: Cell death assay, Experiment 1 (live cells counted by trypan blue); format: cell-based; settings: Homo sapiens, 100 nM, 48 hours, read-out: % live cells (vs control)
melting point [°C],SMILES,viability at 0.1 µM [1] [%]
133 to 135,Cc1cn(-c2ccc(NC(=O)c3ccc(Cl)c(C#Cc4ccc(NC(C)C)nn4)c3)cc2C(F)(F)F)cn1 [Compound 22],–
131 to 133,"Cc1cn(-c2ccc(NC(=O)c3ccc(C)c(C#Cc4cnc(NC5CC5)nc4)c3)cc2C(F)(F)F)cn1 [Compound 28, 3-(2-(2-(Cyclopropylamino)pyrimidin-5-yl)ethynyl)-4-methyl-N-(4-(4-methyl-1H-imidazol-1-yl)-3-(trifluoromethyl)phenyl)benzamide]",12.7
153 to 155,"Cc1cn(-c2ccc(NC(=O)c3ccc(Cl)c(C#Cc4cnc5cccnn45)c3)cc2C(F)(F)F)cn1 [Compound 31, 4-Chloro-3-(2-(imidazo[1,2-b]pyridazin-3-yl)ethynyl)-N-(4-(4-methyl-1H-imidazol-1-yl)-3-(trifluoromethyl)phenyl)benzamide]",14.4
192 to 194,"Cc1cn(-c2cc(NC(=O)c3ccc(C)c(C#Cc4ccc(NC(C)C)nn4)c3)cc(C(F)(F)F)c2)cn1 [Compound 25, 3-(2-(6-(Isopropylamino)pyridazin-3-yl)ethynyl)-4-methyl-N-(3-(4-methyl-1H-imidazol-1-yl)-5-(trifluoromethyl)phenyl)benzamide]",–
163 to 165,"Cc1cn(-c2cc(NC(=O)c3ccc(Cl)c(C#Cc4cnc(NC5CC5)nc4)c3)cc(C(F)(F)F)c2)cn1 [Compound 33, 4-Chloro-3-(2-(2-(cyclopropylamino)pyrimidin-5-yl)ethynyl)-N-(3-(4-methyl-1H-imidazol-1-yl)-5-(trifluoromethyl)phenyl)benzamide]",7.97
223 to 225,"Cc1cn(-c2cc(NC(=O)c3ccc(C)c(C#Cc4ccc(NC5CCC5)nn4)c3)cc(C(F)(F)F)c2)cn1 [Compound 24, 3-(2-(6-(Cyclobutylamino)pyridazin-3-yl)ethynyl)-4-methyl-N-(3-(4-methyl-1H-imidazol-1-yl)-5-(trifluoromethyl)phenyl)benzamide]",16.4
153 to 154,"Cc1cn(-c2cc(NC(=O)c3ccc(Cl)c(C#Cc4cnc5cccnn45)c3)cc(C(F)(F)F)c2)cn1 [Compound 32, 4-Chloro-3-(2-(imidazo[1,2-b]pyridazin-3-yl)ethynyl)-N-(3-(4-methyl-1H-imidazol-1-yl)-5-(trifluoromethyl)phenyl)benzamide]",9.57
83 to 85,"CN1CCN(Cc2ccc(NC(=O)N3CCC(C#Cc4cnc5cccnn45)C3)cc2C(F)(F)F)CC1 (stereo not shown) [Compound 35, 3-(2-(Imidazo[1,2-b]pyridazin-3-yl)ethynyl)pyrrolidine-N-(4-((4-methylpiperazin-1-yl)methyl)-3-(trifluoromethyl)phenyl)-1-carboxamide]",11.3
225 to 227,"Cc1cn(-c2cc(NC(=O)c3ccc(Cl)c(C#Cc4ccc(NC5CCC5)nn4)c3)cc(C(F)(F)F)c2)cn1 [Compound 27, 4-Chloro-3-(2-(6-(cyclobutylamino)pyridazin-3-yl)ethynyl)-N-(3-(4-methyl-1H-imidazol-1-yl)-5-(trifluoromethyl)phenyl)benzamide]",–
65 to 70,"CN1CCN(Cc2ccc(NC(=O)N3CCCC(C#Cc4cnc5cccnn45)C3)cc2C(F)(F)F)CC1 (stereo not shown) [Compound 34, 3-(2-(Imidazo[1,2-b]pyridazin-3-yl)ethynyl)piperidine-N-(4-((4-methylpiperazin-1-yl)methyl)-3-(trifluoromethyl)phenyl)-1-carboxamide]",12
141 to 143,"Cc1cn(-c2ccc(NC(=O)c3ccc(Cl)c(C#Cc4cnc(NC5CC5)nc4)c3)cc2C(F)(F)F)cn1 [Compound 29, 4-Chloro-3-(2-(2-(cyclopropylamino)pyrimidin-5-yl)ethynyl)-N-(4-(4-methyl-1H-imidazol-1-yl)-3-(trifluoromethyl)phenyl)benzamide]",5.87
213 to 215,"Cc1cn(-c2cc(NC(=O)c3ccc(Cl)c(C#Cc4ccc(NC5CC5)nn4)c3)cc(C(F)(F)F)c2)cn1 [Compound 26, 4-Chloro-3-(2-(6-(cyclopropylamino)pyridazin-3-yl)ethynyl)-N-(3-(4-methyl-1H-imidazol-1-yl)-5-(trifluoromethyl)phenyl)benzamide]",18.3

# The remaining lines, values behind:
SMILES,melting point [°C],viability at 0.1 µM [1] [%]
CC(C)Nc1ccc(C#Cc2cc(C(=O)Nc3ccc(CN4CCN(C)CC4)c(C(F)(F)F)c3)ccc2Cl)nn1 [Compound 17],133 to 134,18.3
"Cc1cn(-c2ccc(NC(=O)c3ccc(C)c(C#Cc4ccc(NC(C)C)nn4)c3)cc2C(F)(F)F)cn1 [Compound 19, 3-(2-(6-(Isopropylamino)pyridazin-3-yl)ethynyl)-4-methyl-N-(4-(4-methyl-1H-imidazol-1-yl)-3-(trifluoromethyl)phenyl)benzamide]",141 to 143,–
"Cc1ccc(-c2nc3ccc(CN4CCN(C)CC4)cc3[nH]2)cc1C#Cc1ccc(NC(C)C)nn1 [Compound 4, N-Isopropyl-6-(2-(2-methyl-5-(6-((4-methylpiperazin-1-yl)methyl)-1H-benzo[d]imidazol-2-yl)phenyl)ethynyl)pyridazin-3-amine]",129 to 130,–
"Cc1ccc(C(=O)Nc2ccc(CN3CCN(C)CC3)c(C(F)(F)F)c2)cc1C#Cc1cnc2cccnn12 [AP-24534, reference compound]",–,10.1
"CN1CCN(Cc2ccc(NC(=O)c3ccc(Cl)c(C#Cc4ccc(NC5CC5)nn4)c3)cc2C(F)(F)F)CC1 [Compound 15, 4-Chloro-3-(2-(6-(cyclopropylamino)pyridazin-3-yl)ethynyl)-N-(4-((4-methylpiperazin-1-yl)methyl)-3-(trifluoromethyl)phenyl)benzamide]",133 to 134,17
"Cc1ccc(-c2nc3ccc(CN4CCN(C)CC4)cc3[nH]2)cc1C#Cc1ccc(NC2CCC2)nn1 [Compound 1, N-Cyclobutyl-6-(2-(2-methyl-5-(6-((4-methylpiperazin-1-yl)methyl)-1H-benzo[d]imidazol-2-yl)phenyl)ethynyl)pyridazin-3-amine]",148 to 150,–
"Cc1ccc(C(=O)Nc2ccc(CN3CCN(C)CC3)c(C(F)(F)F)c2)cc1C#Cc1ccc(NC(C)C)nn1 [Compound 14, 3-(2-(6-(Isopropylamino)pyridazin-3-yl)ethynyl)-4-methyl-N-(4-((4-methylpiperazin-1-yl)methyl)-3-(trifluoromethyl)phenyl)benzamide]",67 to 68,8.37
"CN1CCN(Cc2ccc3nc(-c4ccc(Cl)c(C#Cc5ccc(NC6CC6)nn5)c4)[nH]c3c2)CC1 [Compound 7, 6-(2-(2-Chloro-5-(6-((4-methylpiperazin-1-yl)methyl)-1H-benzo[d]imidazol-2-yl)phenyl)ethynyl)-N-cyclopropylpyridazin-3-amine]",130 to 131,–
"Cc1cn(-c2ccc(NC(=O)c3ccc(Cl)c(C#Cc4ccc(NC5CC5)nn4)c3)cc2C(F)(F)F)cn1 [Compound 20, 4-Chloro-3-(2-(6-(cyclopropylamino)pyridazin-3-yl)ethynyl)-N-(4-(4-methyl-1H-imidazol-1-yl)-3-(trifluoromethyl)phenyl)benzamide]",150 to 152,–
"CN1CCN(Cc2ccc3nc(-c4ccc(Cl)c(C#Cc5cnc(NC6CC6)nc5)c4)[nH]c3c2)CC1 [Compound 10, 5-(2-(2-Chloro-5-(6-((4-methylpiperazin-1-yl)methyl)-1H-benzo[d]imidazol-2-yl)phenyl)ethynyl)-N-cyclopropylpyrimidin-2-amine]",160 to 162,11
"Cc1ccc(-c2nc3ccc(CN4CCN(C)CC4)cc3[nH]2)cc1C#Cc1ccc(NC2CC2)nn1 [Compound 2, N-Cyclopropyl-6-(2-(2-methyl-5-(6-((4-methylpiperazin-1-yl)methyl)-1H-benzo[d]imidazol-2-yl)phenyl)ethynyl)pyridazin-3-amine]",145 to 146,–
"Cc1cn(-c2ccc(NC(=O)c3ccc(Cl)c(C#Cc4ccc(NC5CCC5)nn4)c3)cc2C(F)(F)F)cn1 [Compound 21, 4-Chloro-3-(2-(6-(cyclobutylamino)pyridazin-3-yl)ethynyl)-N-(4-(4-methyl-1H-imidazol-1-yl)-3-(trifluoromethyl)phenyl)benzamide]",153 to 155,–
"Cc1cn(-c2ccc(NC(=O)c3ccc(C)c(C#Cc4ccc(NC5CC5)nn4)c3)cc2C(F)(F)F)cn1 [Compound 18, 3-(2-(6-(Cyclopropylamino)pyridazin-3-yl)ethynyl)-4-methyl-N-(4-(4-methyl-1H-imidazol-1-yl)-3-(trifluoromethyl)phenyl)benzamide]",125 to 126,–
"Cc1cn(-c2ccc3nc(-c4ccc(C)c(C#Cc5cnc6cccnn56)c4)[nH]c3c2)cn1 [Compound 11, 3-(2-(2-Methyl-5-(6-(4-methyl-1H-imidazol-1-yl)-1H-benzo[d]imidazol-2-yl)phenyl)ethynyl)imidazo[1,2-b]pyridazine]",182 to 184,–
"CN1CCN(Cc2ccc3nc(-c4ccc(Cl)c(C#Cc5ccc(NC6CCC6)nn5)c4)[nH]c3c2)CC1 [Compound 8, 6-(2-(2-Chloro-5-(6-((4-methylpiperazin-1-yl)methyl)-1H-benzo[d]imidazol-2-yl)phenyl)ethynyl)-N-cyclobutylpyridazin-3-amine]",161 to 163,–
"CN1CCN(Cc2ccc(NC(=O)c3ccc(Cl)c(C#Cc4ccc(NC5CCC5)nn4)c3)cc2C(F)(F)F)CC1 [Compound 16, 4-Chloro-3-(2-(6-(cyclobutylamino)pyridazin-3-yl)ethynyl)-N-(4-((4-methylpiperazin-1-yl)methyl)-3-(trifluoromethyl)phenyl)benzamide]",132 to 133,8.46
"CC(C)Nc1ccc(C#Cc2cc(-c3nc4ccc(CN5CCN(C)CC5)cc4[nH]3)ccc2Cl)nn1 [Compound 9, 6-(2-(2-Chloro-5-(6-((4-methylpiperazin-1-yl)methyl)-1H-benzo[d]imidazol-2-yl)phenyl)ethynyl)-N-isopropylpyridazin-3-amine]",127 to 128,–
